The target of one data set is human mGluR5 (Homo sapiens, UniProt P41594). Conditions: read-out: human mGluR5 IC50.
The conditions of data set [1]: intravenous administration to rhesus monkeys; literature; cited from earlier work.

Chain of human mGluR5 (P41594 21-1212): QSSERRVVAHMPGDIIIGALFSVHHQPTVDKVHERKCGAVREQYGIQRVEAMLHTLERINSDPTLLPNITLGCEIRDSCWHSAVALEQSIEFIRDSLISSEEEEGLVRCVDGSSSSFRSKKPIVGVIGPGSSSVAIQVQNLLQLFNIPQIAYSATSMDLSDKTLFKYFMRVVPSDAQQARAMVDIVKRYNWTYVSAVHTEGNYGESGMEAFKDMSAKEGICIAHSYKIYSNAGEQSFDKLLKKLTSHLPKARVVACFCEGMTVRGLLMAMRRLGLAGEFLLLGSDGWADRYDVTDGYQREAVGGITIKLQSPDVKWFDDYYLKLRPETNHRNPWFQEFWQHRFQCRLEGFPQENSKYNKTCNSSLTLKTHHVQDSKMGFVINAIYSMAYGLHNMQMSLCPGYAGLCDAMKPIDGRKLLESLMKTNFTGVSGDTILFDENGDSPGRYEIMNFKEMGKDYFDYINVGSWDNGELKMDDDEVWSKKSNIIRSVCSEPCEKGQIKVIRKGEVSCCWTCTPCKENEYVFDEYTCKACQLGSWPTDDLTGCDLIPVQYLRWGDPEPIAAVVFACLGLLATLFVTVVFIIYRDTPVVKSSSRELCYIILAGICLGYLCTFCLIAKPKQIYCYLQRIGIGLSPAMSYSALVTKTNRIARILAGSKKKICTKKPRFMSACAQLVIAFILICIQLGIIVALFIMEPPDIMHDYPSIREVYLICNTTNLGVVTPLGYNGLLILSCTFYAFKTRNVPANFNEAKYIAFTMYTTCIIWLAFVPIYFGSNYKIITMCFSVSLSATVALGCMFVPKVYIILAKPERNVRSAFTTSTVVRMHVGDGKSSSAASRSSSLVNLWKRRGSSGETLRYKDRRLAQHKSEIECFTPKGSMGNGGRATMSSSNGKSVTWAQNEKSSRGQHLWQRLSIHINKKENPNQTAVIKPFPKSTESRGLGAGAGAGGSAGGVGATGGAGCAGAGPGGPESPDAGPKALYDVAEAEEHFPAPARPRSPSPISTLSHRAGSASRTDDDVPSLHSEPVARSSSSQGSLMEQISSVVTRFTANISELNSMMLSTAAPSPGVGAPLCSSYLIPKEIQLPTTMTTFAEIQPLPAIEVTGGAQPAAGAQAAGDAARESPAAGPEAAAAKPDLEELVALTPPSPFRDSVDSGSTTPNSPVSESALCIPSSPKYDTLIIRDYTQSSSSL
Method for human mGluR5: The cells were loaded with a Ca2+-sensitive fluorescent dye (e.g., Fluo-4), and the plates were washed and placed in the FDSS instrument. Test compound was applied to cells 3 seconds after baseline readings were taken. Cells were incubated with the test compounds for 140 seconds and then stimulated with an EC20 concentration of an mGluR5 agonist (e.g., glutamate, 3,5-dihydroxyphenylglycine, or quisqualate); 60-80 seconds later an EC80 concentration of agonist was added and readings taken for an additional 40 seconds. Data were collected at 1 Hz. […] Concentration response curves were generated using a four parameter logistical equation.
The above described assay was operated in two modes. In the first mode (utilizing a triple add protocol), a range of concentrations of the present compounds were added to cells, followed by two single fixed concentrations of agonist (EC20 followed by EC80). If a compound acted as a potentiator, an EC50 value for potentiation of the EC20 response and a maximum extent of potentiation by the compound at this concentration of agonist was determined by non-linear curve fitting. If a compound acted as an antagonist, an IC50 value for antagonism of the EC80 response and a maximum extent of antagonism by the compound at this concentration of agonist was determined by non-linear curve fitting. In the second mode (utilizing a double add protocol), several fixed concentrations of the present compounds were added to various wells on a plate, followed by a range of concentrations of agonist for each concentration of present compound; the EC50 values for the agonist at each concentration of compound were determined by nonlinear curve fitting. A decrease in the EC50 value of the agonist with increasing concentrations of the present compounds (a leftward shift of the agonist concentration-response curve) is an indication of the degree of mGluR5 positive allosteric modulation at a given concentration of the present compound. An increase in the EC50 value of the agonist with increasing concentrations of the present compounds (a rightward shift of the agonist concentration response curve) is an indication of the degree of mGluR5 antagonism at a given concentration of the present compound. The second mode also indicates whether the present compounds also affect the maximum response to mGluR5 to agonists.
The mGluR5 activity was determined using the metabotropic glutamate receptor activity assays in human embryonic kidney cells as described herein. The mGluR5 activity data for some compounds are shown as the average of at least three experiments with the standard error in these cases. If no error is indicated for the mGluR5 activity, the values given represent the results from a single experiment or the average of two experiments.

On to `Cc1nc(NC(=O)c2cc(Oc3cncnc3)ccn2)sc1F`, for which the concentration for half-maximal inhibition (IC50) on human mGluR5 turned out to be 943 nM. On the same count and under the same terms, the result for `O=C(Nc1cccc(Cl)n1)c1cc(Oc2cncnc2)ccn1` reads 245 nM; that for `O=C(Nc1ccc(F)cn1)c1cc(Oc2cncnc2)ccn1`, 364 nM; that for `O=C(Nc1cccc(F)n1)c1cc(Oc2cncnc2)ccn1`, 161 nM. On the same count and under the same terms, with `Cc1csc(NC(=O)c2cc(Oc3cccnc3)ccn2)n1` [N-(4-methylthiazol-2-yl)-4-(pyridin-3-yloxy)picolinamide] the figure was 101 nM; with `Cc1cccc(NC(=O)c2cc(Oc3cncnc3)ccn2)n1` [N-(6-methylpyridin-2-yl)-4-(pyrimidin-5-yloxy)picolinamide], 47 nM. On to `Cc1nc(C#Cc2cccnc2)cs1` [MTEP, 3-[(2-methyl-1,3-thiazol-4-yl)ethynyl]pyridine], for which, in data set [1], the clearance entry is recorded as “efficiently cleared”. For `Cc1cccc(NC(=O)c2cc(N(C)c3cncnc3)ccn2)n1`, the IC50 on human mGluR5 was found to be 2150 nM.

Regarding `O=C(Nc1cc(F)ccn1)c1cc(Oc2cncnc2)ccn1`, the IC50 on human mGluR5 was 201 nM.

Broadly, the IC50 is the concentration that gives 50% inhibition.

The record behind these values is US8598345B2 (priority 2009, dated 2013).
